“And” between values parts separate entries of the source, which are not always exact repeats. Identical values can stand only once.
System: BDF1 mice, Adenocarcinoma 755 s.c., tumor weight T/C
Assay: NCI In Vivo Anticancer Drug Screen. Data for tumor model Adenocarcinoma 755 (subcutaneous) in B6D2F1 (BDF1) mice
Conditions: endpoint: mean tumor weight, higher = larger tumour
Summary of the method: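 Values express treated (T) relative to vehicle-dosed control (C) animals, based on survival or tumour size measured after compound treatment of mice bearing a transplanted tumour.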

[1] = dose: 50.0 mg/kg/injection, schedule: Q01DX011 (ip), vehicle: methylcellulose (MC)
[2] = dose: 62.0 mg/kg/injection, schedule: Q01DX011 (ip), vehicle: methylcellulose (MC)

With `Clc1ncnc2nc[nH]c12` the T/C (dose: 1.87 mg/kg/injection, schedule: Q01DX006 (iv), vehicle: carboxymethylcellulose (CMC)) was 96 % of control, the T/C (dose: 1.87 mg/kg/injection, schedule: Q01DX011 (im), vehicle: carboxymethylcellulose (CMC)) was 47 % of control and the T/C (dose: 1.87 mg/kg/injection, schedule: Q01DX011 (ip), vehicle: carboxymethylcellulose (CMC)) was 83 % of control. For the same molecule, the T/C (dose: 1.87 mg/kg/injection, schedule: Q01DX011 (sc), vehicle: carboxymethylcellulose (CMC)) was 103 % of control, the T/C (dose: 2.5 mg/kg/injection, schedule: Q01DX011 (ip), vehicle: carboxymethylcellulose (CMC)) was 66 % of control and the T/C (dose: 3.12 mg/kg/injection, schedule: Q01DX011 (oral), vehicle: carboxymethylcellulose (CMC)) was 110 % of control. For the same molecule, the T/C (dose: 3.12 mg/kg/injection, schedule: Q#A X022 (ip), vehicle: carboxymethylcellulose (CMC)) was 48 % of control, the T/C (dose: 3.75 mg/kg/injection, schedule: Q01DX006 (iv), vehicle: carboxymethylcellulose (CMC)) was 94 % of control and the T/C (dose: 3.75 mg/kg/injection, schedule: Q01DX011 (im), vehicle: carboxymethylcellulose (CMC)) was 83 % of control. The T/C (dose: 3.75 mg/kg/injection, schedule: Q01DX011 (ip), vehicle: carboxymethylcellulose (CMC)) was 62 % of control, the T/C (dose: 3.75 mg/kg/injection, schedule: Q01DX011 (sc), vehicle: carboxymethylcellulose (CMC)) was 76 % of control and the T/C (dose: 5.0 mg/kg/injection, schedule: Q01DX011 (ip), vehicle: carboxymethylcellulose (CMC)) was 36 % of control and 58 % of control. The T/C (dose: 5.0 mg/kg/injection, schedule: Q03DX004 (ip), vehicle: carboxymethylcellulose (CMC)) was 81 % of control, the T/C (dose: 6.25 mg/kg/injection, schedule: Q01DX011 (oral), vehicle: carboxymethylcellulose (CMC)) was 55 % of control and the T/C (dose: 6.25 mg/kg/injection, schedule: Q#A X022 (ip), vehicle: carboxymethylcellulose (CMC)) was 41 % of control. The T/C (dose: 7.5 mg/kg/injection, schedule: Q01DX006 (iv), vehicle: carboxymethylcellulose (CMC)) was 82 % of control, the T/C (dose: 7.5 mg/kg/injection, schedule: Q01DX011 (im), vehicle: carboxymethylcellulose (CMC)) was 22 % of control and the T/C (dose: 7.5 mg/kg/injection, schedule: Q01DX011 (ip), vehicle: carboxymethylcellulose (CMC)) was 34 % of control. For the same molecule, the T/C (dose: 7.5 mg/kg/injection, schedule: Q01DX011 (sc), vehicle: carboxymethylcellulose (CMC)) was 28 % of control, the T/C (dose: 10.0 mg/kg/injection, schedule: Q01DX011 (ip), vehicle: carboxymethylcellulose (CMC)) was 27 % of control and the T/C (dose: 10.0 mg/kg/injection, schedule: Q01DX011 (ip), vehicle: methylcellulose (MC)) was 44 % of control. The T/C (dose: 10.0 mg/kg/injection, schedule: Q03DX004 (ip), vehicle: carboxymethylcellulose (CMC)) was 66 % of control, the T/C (dose: 12.5 mg/kg/injection, schedule: Q01DX011 (oral), vehicle: carboxymethylcellulose (CMC)) was 11 % of control and the T/C (dose: 12.5 mg/kg/injection, schedule: Q#A X022 (ip), vehicle: carboxymethylcellulose (CMC)) was 8 % of control. For the same molecule, the T/C (dose: 15.0 mg/kg/injection, schedule: Q01DX006 (iv), vehicle: carboxymethylcellulose (CMC)) was 25 % of control, the T/C (dose: 15.0 mg/kg/injection, schedule: Q01DX011 (ip), vehicle: carboxymethylcellulose (CMC)) was 13 % of control and the T/C (dose: 15.0 mg/kg/injection, schedule: Q01DX011 (sc), vehicle: carboxymethylcellulose (CMC)) was 7 % of control. The T/C (dose: 15.0 mg/kg/injection, schedule: Q03DX004 (ip), vehicle: carboxymethylcellulose (CMC)) was 55 % of control, the T/C (dose: 18.75 mg/kg/injection, schedule: Q07DX002 (ip), vehicle: carboxymethylcellulose (CMC)) was 46 % of control and the T/C (dose: 25.0 mg/kg/injection, schedule: Q01DX011 (oral), vehicle: carboxymethylcellulose (CMC)) was 2 % of control. The T/C (dose: 25.0 mg/kg/injection, schedule: Q03DX004 (ip), vehicle: carboxymethylcellulose (CMC)) was 35 % of control, the T/C (dose: 37.5 mg/kg/injection, schedule: Q01DX001 (ip), vehicle: carboxymethylcellulose (CMC)) was 49 % of control and 66 % of control and the T/C (dose: 37.5 mg/kg/injection, schedule: Q07DX002 (ip), vehicle: carboxymethylcellulose (CMC)) was 16 % of control. For the same molecule, the T/C (dose: 50.0 mg/kg/injection, schedule: Q01DX011 (ip), vehicle: carboxymethylcellulose (CMC)) was 3 % of control, the T/C [1] was 5 % of control and the T/C (dose: 50.0 mg/kg/injection, schedule: Q01DX011 (sc), vehicle: carboxymethylcellulose (CMC)) was 1 % of control. The T/C (dose: 50.0 mg/kg/injection, schedule: Q03DX004 (ip), vehicle: carboxymethylcellulose (CMC)) was 5 % of control, the T/C (dose: 75.0 mg/kg/injection, schedule: Q01DX001 (ip), vehicle: carboxymethylcellulose (CMC)) was 18 % of control and 42 % of control and the T/C (dose: 75.0 mg/kg/injection, schedule: Q03DX004 (ip), vehicle: carboxymethylcellulose (CMC)) was 1 % of control. For the same molecule, the T/C (dose: 75.0 mg/kg/injection, schedule: Q07DX002 (ip), vehicle: carboxymethylcellulose (CMC)) was 1 % of control, the T/C (dose: 100.0 mg/kg/injection, schedule: Q01DX011 (ip), vehicle: carboxymethylcellulose (CMC)) was 1 % of control and 4 % of control and the T/C (dose: 100.0 mg/kg/injection, schedule: Q01DX011 (ip), vehicle: methylcellulose (MC)) was 6 % of control. The T/C (dose: 150.0 mg/kg/injection, schedule: Q01DX001 (ip), vehicle: carboxymethylcellulose (CMC)) was 24 % of control and 29 % of control, the T/C (dose: 150.0 mg/kg/injection, schedule: Q07DX002 (ip), vehicle: carboxymethylcellulose (CMC)) was 1 % of control and the T/C (dose: 175.0 mg/kg/injection, schedule: Q01DX001 (ip), vehicle: carboxymethylcellulose (CMC)) was 8 % of control and 17 % of control. The T/C (dose: 175.0 mg/kg/injection, schedule: Q07DX002 (ip), vehicle: carboxymethylcellulose (CMC)) was 4 % of control, the T/C (dose: 300.0 mg/kg/injection, schedule: Q01DX011 (ip), vehicle: methylcellulose (MC)) was 4 % of control and the T/C (dose: 350.0 mg/kg/injection, schedule: Q01DX001 (ip), vehicle: carboxymethylcellulose (CMC)) was 5 % of control and 8 % of control.
With `CC(C)Cn1cnc2c(SCc3ccc(Br)cc3)nc(N)nc21` the T/C [1] was 40 % of control, the T/C (dose: 150.0 mg/kg/injection, schedule: Q01DX011 (ip), vehicle: methylcellulose (MC)) was 4 % of control and the T/C (dose: 200.0 mg/kg/injection, schedule: Q01DX011 (ip), vehicle: methylcellulose (MC)) was 1 % of control. The T/C (dose: 400.0 mg/kg/injection, schedule: Q01DX011 (ip), vehicle: methylcellulose (MC)) was 2 % of control.
`C[C@]12CCC(=O)C=C1CC[C@H]1[C@@H]3CC[C@@]4(OCC4=O)[C@@]3(C)C[C@H](O)[C@@]12F` was tested, and the T/C (dose: 75.0 mg/kg/injection, schedule: Q01DX011 (sc), vehicle: steriod suspending solution) was 13 % of control and the T/C (dose: 150.0 mg/kg/injection, schedule: Q01DX011 (sc), vehicle: steriod suspending solution) was 11 % of control.
For `CCCCOP(=O)(OCCCC)OCC1OC(n2cnc3c(=S)nc[nH]c32)C(O)C1O` (stereo not drawn), the T/C (dose: 31.0 mg/kg/injection, schedule: Q01DX011 (ip), vehicle: methylcellulose (MC)) was 100 % of control, the T/C [2] was 65 % of control and the T/C (dose: 125.0 mg/kg/injection, schedule: Q01DX011 (ip), vehicle: methylcellulose (MC)) was 46 % of control.
`NC(=O)c1cn(C2OC(CO)C(O)C2O)c2ncnc(N)c12` (stereo not drawn) was tested, and the T/C (dose: 0.12 mg/kg/injection, schedule: Q01DX011 (ip), vehicle: carboxymethylcellulose (CMC)) was 71 % of control, the T/C (dose: 0.25 mg/kg/injection, schedule: Q01DX011 (ip), vehicle: carboxymethylcellulose (CMC)) was 54 % of control and the T/C (dose: 0.5 mg/kg/injection, schedule: Q01DX011 (ip), vehicle: carboxymethylcellulose (CMC)) was 51 % of control.
For `CCSCCC(N)C(=O)O` (stereo not drawn), the T/C (dose: 13.13 mg/kg/injection, schedule: Q01DX011 (ip), vehicle: carboxymethylcellulose (CMC)) was 171 % of control, the T/C (dose: 18.0 mg/kg/injection, schedule: Q01DX011 (ip), vehicle: methylcellulose (MC)) was 86 % of control and the T/C (dose: 20.5 mg/kg/injection, schedule: Q01DX011 (ip), vehicle: carboxymethylcellulose (CMC)) was 99 % of control. The T/C (dose: 26.25 mg/kg/injection, schedule: Q01DX011 (ip), vehicle: carboxymethylcellulose (CMC)) was 118 % of control, the T/C (dose: 37.5 mg/kg/injection, schedule: Q01DX011 (ip), vehicle: methylcellulose (MC)) was 107 % of control and the T/C (dose: 52.5 mg/kg/injection, schedule: Q01DX011 (ip), vehicle: carboxymethylcellulose (CMC)) was 121 % of control. For the same molecule, the T/C (dose: 56.5 mg/kg/injection, schedule: Q01DX011 (ip), vehicle: carboxymethylcellulose (CMC)) was 46 % of control, the T/C (dose: 82.0 mg/kg/injection, schedule: Q01DX011 (ip), vehicle: carboxymethylcellulose (CMC)) was 65 % of control and the T/C (dose: 90.4 mg/kg/injection, schedule: Q01DX011 (ip), vehicle: other) was 156 % of control. The T/C (dose: 105.0 mg/kg/injection, schedule: Q01DX011 (ip), vehicle: carboxymethylcellulose (CMC)) was 93 % of control, the T/C (dose: 113.0 mg/kg/injection, schedule: Q01DX011 (ip), vehicle: carboxymethylcellulose (CMC)) was 38 % of control and the T/C (dose: 113.0 mg/kg/injection, schedule: Q01DX011 (ip), vehicle: other) was 109 % of control. The T/C (dose: 150.66 mg/kg/injection, schedule: Q01DX011 (ip), vehicle: other) was 37 % of control, the T/C (dose: 226.0 mg/kg/injection, schedule: Q01DX011 (ip), vehicle: carboxymethylcellulose (CMC)) was 84 % of control and the T/C (dose: 226.0 mg/kg/injection, schedule: Q01DX011 (ip), vehicle: other) was 49 % of control.
In the case of `CSc1cc(NCc2ccccc2)nc(N)n1`, the T/C (dose: 25.0 mg/kg/injection, schedule: Q01DX011 (ip), vehicle: methylcellulose (MC)) was 85 % of control and the T/C (dose: 75.0 mg/kg/injection, schedule: Q01DX011 (ip), vehicle: methylcellulose (MC)) was 65 % of control.
`Cc1cnc(SCc2ccc(Cl)cc2Cl)nc1N(C)C` was tested, and the T/C [2] was 55 % of control.

Reference: PubChem BioAssay AID180 (DTP/NCI, 2004)
